Laboratory results reported in patent US20110319362A1, “STAT3 LIGANDS AND THERAPEUTIC USES THEREOF” (priority 2008, published 2011).
Like-named read-outs stand apart in the source and are kept apart here.

Legend:
[1] = system: MDA-MB-468 cancer cell line; assay: Cell growth assay (WST-8); assay type: cell-based; conditions: Homo sapiens, MDA-MB-468, 96 h, WST-8, 4 days
Description: (§1) The effect of STAT3 compounds on cell growth was evaluated by a WST-8 [2-(2-methoxy-4-nitrophenyl)-3-(4-nitrophenyl)-5-(2,4-disulfophenyl)-2H-tetrazolium, monosodium salt assay (Dojindo Molecular Technologies, Inc). Cells (3000-4000 cells in each well) were cultured in 96-well tissue culture plates in medium (200 μL) containing various concentrations of STAT3 compounds for 4 days. At the end of incubation, WST-8 dye (20 μL) was added to each well and incubated for an additional 1-3 h, and then the absorbance was measured in a microplate reader (Molecular Devices) at 450 nm. Cell growth inhibition was evaluated as the ratio of the absorbance of the sample to that of the control.

[2] = system: MDA-MB-231 cancer cell line; assay: Cell growth assay (WST-8); assay type: cell-based; conditions: Homo sapiens, MDA-MB-231, 96 h; WST-8, 4 days; read-out: Inhibition of cell growth IC50, MDA-MB-231 cancer cell line
Description: as §1

[3] = target: T1, STAT3 protein (Homo sapiens, UniProt P40763); assay: In vitro competitive STAT3 binding assay (fluorescence polarization)
T1 construct: human STAT3 protein (residues 122-722) fused to His-tag; His-tag
T1 sequence (P40763 122-722): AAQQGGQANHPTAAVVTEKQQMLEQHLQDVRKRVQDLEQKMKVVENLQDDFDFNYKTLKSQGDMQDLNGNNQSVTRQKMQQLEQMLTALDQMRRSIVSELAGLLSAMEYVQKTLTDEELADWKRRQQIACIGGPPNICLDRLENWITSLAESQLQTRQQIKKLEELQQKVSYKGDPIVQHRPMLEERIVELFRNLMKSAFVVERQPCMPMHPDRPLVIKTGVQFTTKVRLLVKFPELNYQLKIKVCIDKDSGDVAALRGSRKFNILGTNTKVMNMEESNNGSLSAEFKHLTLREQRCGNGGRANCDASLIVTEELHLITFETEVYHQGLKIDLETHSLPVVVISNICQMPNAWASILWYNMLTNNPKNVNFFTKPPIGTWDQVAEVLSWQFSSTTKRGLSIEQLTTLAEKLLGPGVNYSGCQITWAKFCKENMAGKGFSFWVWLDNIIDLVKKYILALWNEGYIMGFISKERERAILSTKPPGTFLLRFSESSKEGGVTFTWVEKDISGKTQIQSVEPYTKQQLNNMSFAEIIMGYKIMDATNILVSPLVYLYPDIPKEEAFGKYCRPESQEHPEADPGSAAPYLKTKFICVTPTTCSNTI
From the text: To quantitatively determine the binding affinities of STAT3 inhibitors to STAT3 protein, a sensitive and quantitative in vitro binding assay was developed based upon fluorescence polarization (FP) method. For this FP assay, 5-carboxyfluorescein (5-Fam) was coupled to a phosphopeptide (phospho-Tyr-Leu-Pro-Gln-Thr-Val-amide) with two beta-alanine and one glycine residues as the spacer between 5-Fam and the phosphopeptide to obtain 5-Fam-beta-Ala-beta-Ala-Gly-phospho-Tyr-Leu-Pro-Gln-Thr-Val-amide as the fluorescently tagged tracer, which was named as STT2 peptide. […] The recombinant human STAT3 protein (residues 122-722) fused to His-tag was stable and soluble.
Competitive binding experiments were carried out using 150 nM of STAT3 protein and 5 nM of STT2 peptide with different concentrations of a tested STAT3 inhibitor. For each experiment, two controls were included. One control contained STAT3 protein and STT2 peptide, and the second control contained STT2 peptide only. The polarization values were measured after 2-3 hours of incubation using an ULTRA READER (Tecan U.S. Inc., Research Triangle Park, N.C.). IC50 values, the inhibitor concentration at which 50% of the fluorescently tagged STT2 peptide is displaced by STAT3 inhibitors, was determined from a plot using nonlinear least-squares analysis using GRAPHPAD PRISM software (GraphPad Software, Inc., San Diego, Calif.). […]

[4] = read-out: Inhibition of cell growth IC50, MDA-MB-468 cancer cell line
[5] = FP competitive binding, fluorescently tagged STT2 peptide tracer, read-out: Binding affinities to STAT3 IC50
[6] = Table 2 prints no column heads, columns and unit as in Table 1, read-out: Inhibition of cell growth IC50, MDA-MB-468 cancer cell line (pro-drugs, Table 2)

Row | Compound | IC50 [1, 4] [µM] | IC50 [2] [µM] | IC50 [3, 5] [µM] | IC50 [3] [µM] | IC50 [1, 6] [µM]
1 | O=C(N[C@@H](Cc1ccc(OP(=O)(O)O)cc1)C(=O)N[C@H]1CCCC[C@H]2CC[C@@H](Cn3cc(-c4ccccc4)nn3)N2C1=O)OCc1ccccc1 [Example 9] | > 5 | > 5 | > 20 |  | 
2 | CN(C)[C@@H](Cc1ccc(OP(=O)(O)O)cc1)C(=O)N[C@H]1CCCCC2CC[C@@H](C(=O)N[C@@H](Cc3c[nH]cn3)C(=O)NCc3ccccc3)N2C1=O (stereo in doubt) [Example 39] | > 100 | > 100 | < 10 |  | 
3 | NC(=O)CC[C@H](NC(=O)[C@@H]1CCC2CCCC[C@H](NC(=O)/C=C/c3ccc(OP(=O)(O)O)cc3)C(=O)N21)C(=O)NCc1ccccc1 (stereo partly shown) [Example 56] | > 100 | > 100 |  | < 1 | 
4 | CCCCCCCCCCCCNC(=O)[C@H](CCC(N)=O)NC(=O)[C@@H]1CCC2CCCC[C@H](NC(=O)[C@H](Cc3ccc(OP(=O)(O)O)cc3)NC)C(=O)N21 (stereo partly shown) | < 20 | < 30 | < 5 |  | 
5 | O=C(N[C@@H](Cc1ccc(OP(=O)(O)O)cc1)C(=O)N[C@H]1CCCC[C@H]2CC[C@@H](C(=O)N[C@@H](Cc3c[nH]cn3)C(=O)NCc3ccccc3)N2C1=O)OCc1ccccc1 [Example 22] | > 100 | > 50 |  | < 10 | 
6 | CCCCCCCCCCCCCCCCOP(=O)(O)C(F)(F)c1ccc2cc(C(=O)N[C@H]3CCCC[C@H]4CC[C@@H](C(=O)NCCc5cn[nH]c5)N4C3=O)[nH]c2c1 |  |  |  |  | > 100
7 | CC(C)(C)C(=O)OCOP(=O)(OCOC(=O)C(C)(C)C)C(F)(F)c1ccc(/C=C/C(=O)N[C@H]2CCCCC3CC[C@@H](C(=O)NCCc4cn[nH]c4)N3C2=O)cc1 (stereo partly shown) |  |  |  |  | < 30
8 | CCCCCCCCCCCCCCCCOP(=O)(OCCCCCCCCCCCCCCCC)C(F)(F)c1ccc2cc(C(=O)N[C@H]3CCCC[C@H]4CC[C@@H](C(=O)NC(CCC(N)=O)C(=O)NCc5ccccc5)N4C3=O)[nH]c2c1 (stereo partly shown) |  |  |  |  | < 30
9 | CC(C)(C)C(=O)OCOP(=O)(OCOC(=O)C(C)(C)C)C(F)(F)c1ccc2[nH]c(C(=O)N[C@H]3CCCCC4CC[C@@H](C(=O)NC(CCC(N)=O)C(=O)NCc5ccccc5)N4C3=O)cc2c1 (stereo partly shown) [Example 64] |  |  |  |  | > 100
10 | CN(C)[C@@H](Cc1ccc(CP(=O)(O)O)cc1)C(=O)N[C@H]1CCCC[C@H]2CC[C@@H](C(=O)N[C@@H](Cc3c[nH]cn3)C(=O)NCc3ccccc3)N2C1=O [Example 28] | > 100 |  | > 10 |  | 
11 | Cn1c(C(=O)N[C@H]2CCCCC3CC[C@@H](C(=O)NC(CCC(N)=O)C(=O)NCc4ccccc4)N3C2=O)cc2cc(C(F)(F)P(=O)(O)O)ccc21 (stereo partly shown) [Example 61] | > 100 |  | < 5 |  | 
12 | CCOP(=O)(OCC)C(F)(F)c1ccc2c(c1)cc(C(=O)N[C@H]1CCCCC3CC[C@@H](C(=O)NC(CCC(N)=O)C(=O)NCc4ccccc4)N3C1=O)n2C (stereo partly shown) [Example 62] |  |  |  |  | > 100
13 | CC(C)OC(=O)OCOP(=O)(OCOC(=O)OC(C)C)C(F)(F)c1ccc2[nH]c(C(=O)N[C@H]3CCCCC4CC[C@@H](C(=O)NC(CCC(N)=O)C(=O)NCc5ccccc5)N4C3=O)cc2c1 (stereo partly shown) [Example 68] |  |  |  |  | > 100
14 | NC(=O)CC[C@H](NC(=O)[C@@H]1CCC2CCCC[C@H](NC(=O)[C@H](Cc3ccc(OP(=O)(O)O)cc3)NC(=O)CCOCCOCCOCCOCCNC(=O)CCCCC3SCC4NC(=O)NC43)C(=O)N21)C(=O)NCc1ccccc1 (stereo partly shown) |  |  |  | < 1 | 
15 | CC(C)(C)C(=O)OCOP(=O)(OCOC(=O)C(C)(C)C)C(F)(F)c1ccc(/C=C/C(=O)N[C@H]2CCCCC3CC[C@@H](C(=O)N[C@@H](CCC(N)=O)C(=O)NCc4ccccc4)N3C2=O)cc1 (stereo partly shown) |  |  |  |  | > 100
16 | CCCCCCCCCCCCCCCCOP(=O)(OCCCCCCCCCCCCCCCC)C(F)(F)c1ccc2cc(C(=O)N[C@H]3CCCC[C@H]4CC[C@@H](C(=O)N(CC)CC)N4C3=O)[nH]c2c1 |  |  |  |  | > 100
